The source of these data is publication PMC11477298, “Small Molecules Inducing Autophagic Degradation of Expanded Polyglutamine Protein through Interaction with Both Mutant ATXN3 and LC3” (International Journal of Molecular Sciences, 2024).

What all share (type): cell-based, human
The subject of experiment [1] is ATXN3-Q75-GFP SH-SY5Y cells. In words: High-content neurite outgrowth assay. The conditions noted are these: compound 10 µM, range over the four named compounds; for Neurite branch: untreated 1.16; for Neurite process: untreated 2.41; for Neurite length: untreated 23.2 µm. As to the method:
ATXN3-Q75-GFP SH-SY5Y cells (5 × 10^4/well) were plated onto 24-well plates, with retinoic acid addition (10 µM; Sigma-Aldrich) on day 1 to initiate neuronal differentiation. On day 2, the cells were pretreated with disaccharide trehalose (10 mM, as a positive control) or the studied compounds (10 μM) for 8 h, followed by the addition of doxycycline (5 μg/mL, Sigma-Aldrich) to induce ATXN3-Q75-GFP expression. The cells were kept in the medium containing retinoic acid, the test compound, and doxycycline for 6 days, with the culture medium changed on day 5. ATXN3-Q75 aggregation and neurite outgrowth assays were performed on day 8 using a high-content imaging system (ImageXpress Micro Confocal; Molecular Devices).
For the aggregation assay, cells were stained with Hoechst 33342 (0.1 µg/mL; Sigma-Aldrich) at 37 °C for 30 min. Images of the cells were automatically obtained at excitation/emission wavelengths of 482/536 nm (FITC [fluorescein isothiocyanate] filter) for enhanced GFP and 377/447 nm (DAPI [4′,6-diamidino-2-phenylindole] filter) for nucleus counting. ATXN3-Q75 aggregation was determined by Transfluor technology based on GFP fluorescence intensity. For the neurite outgrowth assay, cells were fixed with 4% paraformaldehyde for 30 min, permeabilized with 0.1% Triton X-100 for 10 min, and blocked by non-specific binding with 3% bovine serum albumin for 20 min. The primary TUBB3 (neuronal class III β-tubulin) antibody (1:1000; BioLegend #802001, San Diego, CA, USA) was used to stain cells at 4 °C overnight, followed by Alexa Fluor 555-donkey anti-rabbit IgG secondary antibody (1:1000; Invitrogen #A-31572) staining for 2 h at room temperature. Nuclei were detected using DAPI (0.1 μg/mL; Sigma-Aldrich). Cell images were obtained at excitation/emission wavelengths of 531/593 nm (TRITC [tetramethylrhodamine] filter) for stained neurites and 377/447 nm (DAPI filter) for nuclei. To quantify neurite outgrowth, microscopic images were segmented with multi-colored masks to assign each outgrowth to a cell body for quantification. Neurite total length (μm) and numbers of process (primary neurites originating from neuronal cell body) and branch (secondary neurites extended from primary neurites) were analyzed (Neurite Outgrowth Application Module; Molecular Devices). In general, […] in each biological replicate were analyzed.

The test system of experiment [2] is ATXN3-Q75-GFP SH-SY5Y cells. In words: Western blot of LC3-II:LC3-I ratio. As to conditions: compound 10 μM; uninduced = 100%, untreated induced 76%; range over trehalose and the four compounds. As to the method: For the immunoblotting analysis, ATXN3-Q75-GFP SH-SY5Y cells were seeded in 6-well plates (3 × 10^5/well) and treated with retinoic acid, test compounds, and doxycycline, as described. On day 8, cells were collected and lysed in buffer (50 mM Tris-HCl pH 8.0, 150 mM NaCl, 2 mM EDTA pH 8.0, 0.1% SDS, 0.5% sodium deoxycholate, 1% NP-40) containing the protease inhibitor cocktail (Sigma-Aldrich). After sonication, the lysates were centrifuged (12,000× g for 10 min at 4 °C) and protein concentrations determined (Bradford protein assay; Bio-Rad, Hercules, CA, USA). Aliquots of protein (20 µg) were separated by electrophoresis using 12% SDS-polyacrylamide gel followed by transfer to a polyvinylidene fluoride membrane. After being blocked with 5% skim milk at 4 °C overnight, the membrane was stained with LC3 (1:1000; Medical & Biological Laboratories Co. #PM036, Tokyo, Japan) or GAPDH (glyceraldehyde 3-phosphate dehydrogenase) (1:1000, MDBio #30000002, Taipei, Taiwan) primary antibody at 4 °C overnight. The immune complexes were detected using HRP-conjugated goat anti-rabbit IgG antibody and chemiluminescent substrate, as described.

Experiment [3] has as its system 293T cells co-expressing ATXN3-Q75-VC and VN-LC3. In words: BiFC high-content analysis of transfected 293T cells. The conditions noted are these: compound 10 μM; 24 h post-induction; untreated = 100%; range over the three named compounds. An excerpt: pTRE3G-BI-VN-LC3-ATXN3-Q14−75-VC was constructed by subcloning the ATXN3-Q14−75-VC KpnI-XbaI fragment and VN-LC3 BamHI fragment of the aforementioned plasmids into the corresponding restriction sites in multiple cloning site (MCS)-2 (ATXN3-Q14−75-VC fragment) or MCS-1 (VN-LC3 fragment) of the pTRE3G-BI vector (Clontech, Mountain View, CA, USA). The resulting plasmid allows the simultaneous expression of ATXN3-Q14−75-VC and VN-LC3 proteins from a bidirectional, Tet-responsive promoter that binds the Tet-On 3G trans-activator protein in the presence of doxycycline and co-transfected pCMV-Tet3G. Next, 293T cells (2 × 10^5) were plated onto 6-well plates on day 1. Upon the next day, the constructed pTRE3G-BI-VN-LC3-ATXN3-Q 14−75-VC (2 μg) together with pCMV-Tet3G (0.5 μg) were transiently co-transfected into cells using GenJet in vitro DNA transfection reagent (SignaGen Laboratories #SL100488, Rockville, MD, USA). Doxycycline (1 μg/mL) was added to cells to induce ATXN3-Q14−75-VC and VN-LC3 expression on day 3. Cell lysates were prepared at 24 h post-induction and analyzed by Western blot using ataxin-3 (1:1000; Invitrogen #PA5-26251) or LC3 (1:2000; MBL International #PM036) antibody. In addition, at 0, 6, 9, 12, and 24 h post-transfection, the pTRE3G-BI-VN-LC3-ATXN3-Q75-VC transfected cells were fixed, permeabilized, blocked, and stained with 5TF1-1C2 (1:1000; Merck #MAB1574) antibody at 4 °C overnight, followed by Cy5-donkey anti-mouse IgG secondary antibody (1:1000; Jackson ImmunoResearch #715-175-151) staining for 2 h at room temperature. Nuclei were counterstained with DAPI (0.1 μg/mL; Sigma-Aldrich). Cell images were obtained at excitation/emission wavelengths of 482/536 nm (FITC filter) for Venus, 631/692 nm (Cy5 filter) for stained expanded ATXN3-Q75 protein, and 377/447 nm (DAPI filter) for detecting nuclei (ImageXpress Micro Confocal; Molecular Devices).
On day 3, doxycycline (1 μg/mL) was added to the aforementioned transfected 293T cells along with NC009-1, -2, or -6 or LM-031 (10 μM). At 24 h post-transfection, the transfected cells were fixed, permeabilized, blocked, and stained with 5TF1-1C2 antibody, as described. After nucleus staining (DAPI, 0.1 μg/mL), the captured images were analyzed as described for overlapped ATXN3-Q75 and Venus signals and the green fluorescence of Venus-tagged LC3 puncta using the high-content imaging system, as described.

SMILES strings stand for the structures.

For `O=C(c1ccccc1)c1cc2c(O)cccc2oc1=O` [LM-031], in experiment [1], the Neurite branch was 1.34–1.37, the Neurite process was 2.55–2.57 and the Neurite length was 26.1–26.9 µm. Moreover, the “Relative LC3-II:LC3-I ratio” value in experiment [2] is listed as 102–124%. Besides, in experiment [3], the “Green fluorescence of Venus-tagged LC3 puncta” value (from here on “Green fluorescence”) is reported as 121–122%; the “Overlapping of green (Venus) and red (ATXN3-Q75) signals” value (“Overlapping of green (Venus) and red” for short) is given as 117–119%.
Regarding `CC(=O)/C(=C\c1ccccc1[N+](=O)[O-])Cc1c(C)[nH]c2ccccc12` [NC009-2], in experiment [1], the Neurite branch was 1.34–1.37, the Neurite process was 2.55–2.57 and the Neurite length is given as 26.1–26.9 µm. For the same compound, the “Relative LC3-II:LC3-I ratio” value in experiment [2] is listed as 102–124%. Besides, in experiment [3], the “Green fluorescence” value is on record as 121–122%; the “Overlapping of green (Venus) and red” value is reported as 117–119%.
Consider `CC(=O)/C(=C\c1ccccc1[N+](=O)[O-])Cc1c[nH]c2ccccc12` [NC009-1], for which, in experiment [1], the Neurite branch was 1.34–1.37, the Neurite process is 2.55–2.57 and the Neurite length is reported as 26.1–26.9 µm. In addition, in experiment [2], the “Relative LC3-II:LC3-I ratio” value is recorded as 102–124%. In addition, in experiment [3], the “Green fluorescence” value was 121–122%; the “Overlapping of green (Venus) and red” value was 117–119%.
